Like-named read-outs stand apart in the source and are kept apart here.
Tests used:
[1] = target: bovine serum albumin (BSA) (Bos taurus, UniProt P02769); experiment: Function test 1: static BSA binding capacity of ligand-functionalized regenerated cellulose membranes (BCA method); conditions: 20 mM piperazine, pH 6.0
Experimental: These ligands were evaluated using two different function tests. In the first function test, bovine serum albumin (BSA) in 20 mM piperazine, pH 6.0, with and without added NaCl, was incubated with a functionalized regenerated cellulose membrane. Bound BSA was then measured using the bicinchoninic acid (BCA) colorimetric method. Function test 1 measured the static protein binding capacity of the membranes under conditions where the pH was close to the isoelectric point of the protein (pI of BSA=5.1). In this function test, the protein had only a weak charge and was sensitive to added salt. This first function test was designed to mimic the binding of a neutral virus where the charge is weak.
Each ligand was immobilized onto regenerated cellulose membranes having 0.45 μm pore diameter using allyl glycidyl ether. The allylated membrane was then brominated. Lastly the ligand was coupled to the membrane via the primary amine on the ligand.

[2] = test system: neutral virus φX174; experiment: Function test 2: LRV for φX174 using functionalized membranes in flow mode, TE buffer pH 7.5; type: binding, bacteriophage φX174; conditions: for φX174 LRV: TE buffer pH 7.5
Excerpt: In these examples, the neutral virus φX174 is used because is one of five model non-pathogenic bacteriophage viruses commonly used in filtration studies to represent the gamut of physical properties of potential adventitious viruses of danger to humans (e.g., size, pI, presence or absence of a membrane). In short, the φX174 virus is an art-recognized virus for modeling viral clearance of dangerous pathogens.
Function test 2 measured the LRV for the neutral virus φX174 using the functionalized membranes in flow mode with TE buffer (10 mM Tris, 1 mM EDTA, pH 7.5) with and without added NaCl. Each ligand was immobilized onto regenerated cellulose membranes having 0.45 μm pore diameter using allyl glycidyl ether. The allylated membrane was then brominated. Lastly the ligand was coupled to the membrane via the primary amine on the ligand.

[3] = test system: neutral virus φX174; experiment: Example 3: φX174 clearance by AGM membrane in presence of basic protein ribonuclease A (FIG. 10); type: binding, bacteriophage φX174; conditions: 0.5 g/L ribonuclease A, TE buffer pH 7.5, with and without added NaCl
Experimental: FIG. 10 is a graph depicting the performance of a virus-trapping membrane containing the immobilized ligand agmatine to remove a neutral virus (φX174) from a solution comprising a basic protein (0.5 g/L ribonuclease) and different concentrations of salt (□=0 mM NaCl; ▴=50 mM NaCl; ▪=150 mM NaCl).
AGM, for example, meets these requirements. […] According to the methods of Example 2, a disposable, micro-porous, regenerated-cellulose virus-trapping membrane was fabricated containing the ligand AGM immobilized on the membrane. The basic protein ribonuclease A (pI˜9.5) was used as a mAb surrogate. A feed solution comprising the neutral virus φX174 and 0.5 g/L of the basic protein ribonuclease A, both dissolved in TE buffer (10 mM Tris, 1 mM EDTA, pH 7.5), with and without added NaCl, was loaded into the membrane. Viral clearance was not reduced by the presence of the basic protein.

[4] = cited from earlier work
[5] = high-salt buffer (23 mS/cm); cited from earlier work
[6] = test system: φX174; conditions: cited from earlier work

bovine serum albumin (BSA), sequence (P02769 25-607): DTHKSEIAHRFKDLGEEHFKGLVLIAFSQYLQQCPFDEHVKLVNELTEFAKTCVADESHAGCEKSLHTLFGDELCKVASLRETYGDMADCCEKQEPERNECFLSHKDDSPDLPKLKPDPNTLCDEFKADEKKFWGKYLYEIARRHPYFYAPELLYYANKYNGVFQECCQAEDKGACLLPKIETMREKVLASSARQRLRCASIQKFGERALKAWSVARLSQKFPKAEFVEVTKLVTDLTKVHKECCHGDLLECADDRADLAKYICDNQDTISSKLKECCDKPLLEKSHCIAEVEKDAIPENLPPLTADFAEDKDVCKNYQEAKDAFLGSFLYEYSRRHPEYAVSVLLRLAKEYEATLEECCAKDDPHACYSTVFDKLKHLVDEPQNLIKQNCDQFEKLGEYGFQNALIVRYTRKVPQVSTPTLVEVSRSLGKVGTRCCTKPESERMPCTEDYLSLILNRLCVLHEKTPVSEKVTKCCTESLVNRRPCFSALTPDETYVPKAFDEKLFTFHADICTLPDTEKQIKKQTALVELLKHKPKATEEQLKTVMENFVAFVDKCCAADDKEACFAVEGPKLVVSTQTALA

What does the source list for `NCC(O)c1ccc(O)cc1` (stereo not shown) [OCT, Octopamine]?
BSA Static Capacity ([1]; 0 mM NaCl): 280 mg/m^2; BSA Static Capacity ([1]; 50 mM NaCl): 290 mg/m^2; BSA Static Capacity ([1]; 150 mM NaCl): 250 mg/m^2; φX174 LRV ([2]; 0 mM NaCl): 5.4; φX174 LRV ([2]; 50 mM NaCl): 1.1; φX174 LRV ([2]; 150 mM NaCl): 0.7

What does the source list for `N=C(N)NCCCCN` [AGM, Agmatine]?
BSA Static Capacity ([1]; 0 mM NaCl): 1000 mg/m^2; BSA Static Capacity ([1]; 50 mM NaCl): 319 mg/m^2; BSA Static Capacity ([1]; 150 mM NaCl): 116 mg/m^2; φX174 LRV ([2]; 0 mM NaCl): 5.5; φX174 LRV ([2]; 50 mM NaCl): 5.5; φX174 LRV ([2]; 150 mM NaCl): 5.9; viral clearance (LRV) of φX174 after adding the basic protein [3]: ≈ 6.0; charge at neutral pH [4]: positive charge

For `N[C@H](CO)Cc1c[nH]c2ccccc12` [TRP, Tryptophanol], which “BSA Static Capacity” value ([1]; 0 mM NaCl) is on record?
Its value is 668 mg/m^2.

What about the “BSA Static Capacity” value ([1]; 50 mM NaCl) of the same compound?
The value was 297 mg/m^2.

And the “BSA Static Capacity” value ([1]; 150 mM NaCl)?
The value was 131 mg/m^2.

And the “φX174 LRV” value ([2]; 0 mM NaCl)?
The value was 5.4.

And the “φX174 LRV” value ([2]; 50 mM NaCl)?
Its value is 1.1.

And the “φX174 LRV” value ([2]; 150 mM NaCl)?
Its value is 1.0.

What does the source list for `N[C@H](CO)Cc1ccccc1` [PHA, Phenylalaninol]?
BSA Static Capacity ([1]; 0 mM NaCl): 330 mg/m^2; BSA Static Capacity ([1]; 50 mM NaCl): 46 mg/m^2; BSA Static Capacity ([1]; 150 mM NaCl): 10 mg/m^2; φX174 LRV ([2]; 0 mM NaCl): 2.8; φX174 LRV ([2]; 50 mM NaCl): 0.1; φX174 LRV ([2]; 150 mM NaCl): 0.0

Which results are given for `N[C@H](CO)Cc1ccc(O)cc1` [TYR, Tyrosinol]?
BSA Static Capacity ([1]; 0 mM NaCl): 638 mg/m^2; BSA Static Capacity ([1]; 50 mM NaCl): 284 mg/m^2; BSA Static Capacity ([1]; 150 mM NaCl): 137 mg/m^2; φX174 LRV ([2]; 0 mM NaCl): 6.4; φX174 LRV ([2]; 50 mM NaCl): 2.7; φX174 LRV ([2]; 150 mM NaCl): 0.9; pKa [4]: 10.8; charge at neutral pH [4]: positively charged; dynamic binding capacity greater than the average of the five best non-aromatic anion-exchange ligands [5]: 63%; dynamic binding capacity relative to the Q ligand [5]: 36 times

Which “BSA Static Capacity” value ([1]; 0 mM NaCl) does the source give for `NCC(O)CN` [DHP, 1,3-diamino-2-hydroxypropane] here?
The value was 946 mg/m^2.

And the “BSA Static Capacity” value ([1]; 50 mM NaCl)?
Its value is 392 mg/m^2.

What about the “BSA Static Capacity” value ([1]; 150 mM NaCl) of the same compound?
The value was 85 mg/m^2.

What about the “φX174 LRV” value ([2]; 0 mM NaCl) of the same compound?
Its value is 5.4.

And the “φX174 LRV” value ([2]; 50 mM NaCl)?
The value was 2.1.

And the “φX174 LRV” value ([2]; 150 mM NaCl)?
The value was 0.1.

Which results are given for `Nc1nc2ccccc2[nH]1` [ABI, 2-aminobenzimidazole]?
BSA Static Capacity ([1]; 0 mM NaCl): 414 mg/m^2; BSA Static Capacity ([1]; 50 mM NaCl): 204 mg/m^2; BSA Static Capacity ([1]; 150 mM NaCl): 108 mg/m^2; φX174 LRV ([2]; 0 mM NaCl): 5.4; φX174 LRV ([2]; 50 mM NaCl): 1.8; φX174 LRV ([2]; 150 mM NaCl): 1.0

With `C[N+](C)(C)CCN.[Cl-]` [AETMA, 2-aminoethyltrimethylammonium chloride, reference compound] as the compound, how does the “BSA Static Capacity” value ([1]; 0 mM NaCl) read?
The value was 551 mg/m^2.

And the “BSA Static Capacity” value ([1]; 50 mM NaCl)?
The value was 42 mg/m^2.

What about the “BSA Static Capacity” value ([1]; 150 mM NaCl) of the same compound?
Its value is 10 mg/m^2.

And the “φX174 LRV” value ([2]; 0 mM NaCl)?
The value was 6.6.

What about the “φX174 LRV” value ([2]; 50 mM NaCl) of the same compound?
Its value is 0.1.

And the “φX174 LRV” value ([2]; 150 mM NaCl)?
Its value is 0.1.

And the “φX174 clearance (LRV) in the presence of salt” value ([2]; in the presence of salt (50 and 150 mM))?
The value was “≈ 0.1”.

And the “salt tolerance of viral clearance” value ([2]; moderate salt concentration)?
Its value is “not salt tolerant”.

And the pKa [4]?
The pKa was greater than 12.

And the “viral clearance of φX174 (LRV)” value ([6]; 0 mM salt)?
Its value is “six”.

And the “viral clearance of φX174 (LRV)” value ([6]; 0 mM salt, listed as “MUSTANG”® Q-brand adsorptive ligand)?
Its value is 6 LRV.

What about the “viral clearance of φX174 (LRV)” value ([6]; 50 mM salt) of the same compound?
The value was 1 LRV.

And the “viral clearance of φX174 (LRV)” value ([6]; 50 mM salt, listed as “MUSTANG”® Q-brand adsorptive ligand)?
Its value is “less than 1 LRV”.

What does the source list for `NCCN(CCN)CCN` [TAEA, tris(2-aminoethyl)amine]?
φX174 LRV ([2]; 0 mM NaCl): 7.6; φX174 LRV ([2]; 50 mM NaCl): 5.8; φX174 LRV ([2]; 150 mM NaCl): 5.1
